The source of these data is patent US4810800A, “Novel imidazole dopamine beta hydroxylase inhibitors” (Merrell Dow Pharmaceuticals Inc., priority 1988, dated 1989).

Assay [1] concerns spontaneously hypertensive rats. The experiment in a line: antihypertensive effect: blood pressure monitored continuously in spontaneously hypertensive rats after ip dosing. The format is in vivo. As to conditions: 50 mg/kg, 6 hours post dose in SHR, Mean Difference ± Standard Deviation. Here is the method: The ability of the compounds of this invention to lower blood pressure can be determined in vivo using spontaneously hypertensive rats (SHR'S) according to standard and well known procedures. The test compound is administered intraperitoneally (ip) to rats and the blood pressure monitored continuously. Snce DBH is a major enzyme in the synthetic pathway of the catecholamines, it would be expected that the presence of an inhibitor would act to decrease the amount of catecholamines produced, and thereby have an antihypertensive effect. The results of the testing for this antihypertensive effect are shown in Table I (MBP is mean blood pressure).
In Vivo at 50 mg/kg, IP, 6 Hours Post Dose in SHR's*

The target in assay [2] is T1, dopamine beta-hydroxylase (Bos taurus, UniProt P15101).
T1 sequence (P15101 1-610): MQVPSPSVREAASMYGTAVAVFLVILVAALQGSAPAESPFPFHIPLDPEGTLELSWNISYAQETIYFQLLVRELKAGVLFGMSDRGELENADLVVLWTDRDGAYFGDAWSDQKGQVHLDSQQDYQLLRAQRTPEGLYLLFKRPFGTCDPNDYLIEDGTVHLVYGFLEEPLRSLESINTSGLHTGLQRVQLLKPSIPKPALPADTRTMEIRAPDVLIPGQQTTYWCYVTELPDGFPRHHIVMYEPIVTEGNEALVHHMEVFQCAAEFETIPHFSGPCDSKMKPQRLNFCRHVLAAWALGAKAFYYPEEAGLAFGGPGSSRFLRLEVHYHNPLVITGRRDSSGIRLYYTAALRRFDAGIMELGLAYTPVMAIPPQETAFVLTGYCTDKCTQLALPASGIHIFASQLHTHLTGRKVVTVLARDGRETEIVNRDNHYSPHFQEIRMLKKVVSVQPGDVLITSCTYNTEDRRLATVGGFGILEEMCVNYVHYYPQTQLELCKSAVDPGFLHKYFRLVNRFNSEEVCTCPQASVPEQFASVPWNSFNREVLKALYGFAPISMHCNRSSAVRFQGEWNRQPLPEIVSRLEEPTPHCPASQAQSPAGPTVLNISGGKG
The experiment in a line: in vitro DBH inhibition (conversion of tyramine to octopamine; oxygen uptake by polarographic electrode). Format: biochemical. As to conditions: pH of 5, 37° C. preferably. The procedure:
The DBH inhibitory properties of the compounds of this invention can readily be determined in vitro by standard and well known procedures for assaying conversion of tyramine to octopamine in the presence of dopamine beta-hydroxylase. Enzymatic oxygenation by DBH is determined in aqueous solution in the presence of molecular oxygen, an electron donor such as ascorbate, and the necessary cofactors for the enzyme at pH of 5 and a temperature of 20°-40° C., preferably 37° C. The test compound is added at the desired concentration, and the system is incubated. Activity is measured by measuring the oxygen uptake using a polarographic electrode and an oxygen monitor by the method of S. May, et al., J. Biol. Chem. 256, 2258 (1981). Inhibition is given in molar concentration of compound at which DBH activity was halved (IC50) when the test compounds were tested according to the above described procedure. The IC50 (expressed in micromolar units) data of some of the compounds of this invention are expressed in Table I.

The term IC50 denotes the concentration needed to halve the response being measured. A higher IC50 goes with weaker potency in that assay. As for `NCc1nccn1Cc1cccs1` [Compound 1, 2-Aminomethyl-1-(2-thienylmethyl)-1H-imidazole], the “Max Change MBP (mean blood pressure)” value in assay [1] is on record as -41 ± 14 mmHg. The compound also registered an IC50 in assay [2] of 12.8 µM.
On the same counts, the results for `NC(=S)c1nccn1Cc1cccs1` [Compound 2, 1-(2-Thienylmethyl)-2-thiocarbamyl-1H-imidazole] are -25 ± 12 mmHg and 4.7 µM.
